# Data published in patent US20130289077A1 (priority 2010, published 2013).
# How the values were obtained:
# [1] = system: Phytophthora infestans; type: in vivo; conditions: tomato young plants, preventive spray, 100 ppm of active ingredient, evaluated 7 days after inoculation; 0% = untreated control, 100% = no disease
# [2] = Measurement of logP by HPLC on reversed phase columns (EEC directive 79/831 Annex V.A8); type: physicochemical; conditions: pH 2.7, 0.1% formic acid in water / acetonitrile gradient
SMILES,Eff. % [1] [%],LogP (HCOOH) [2],"chromatographic logP ([2]; reversed phase HPLC column, read-out: LogP (HCOOH))"
CC(=NOC(=O)Nc1cccc(CON=C(c2ccccc2)c2nnnn2C)n1)C(C)C [Example 13],95,–,–
CC(=NOC(=O)Nc1cccc(CON=C(c2ccccc2)c2nnnn2C)n1)C1CC1 [Example 18],93,–,–
CCCCCC(C)=NOC(=O)Nc1cccc(CON=C(c2ccccc2)c2nnnn2C)n1 [Example 20],95,4.39,–
CC(=NOC(=O)Nc1cccc(CON=C(c2ccccc2)c2nnnn2C)n1)C(C)(C)C [Example 7],95,–,–
CCCCCCC(C)=NOC(=O)Nc1cccc(CON=C(c2ccccc2)c2nnnn2C)n1 [Example 11],90,4.79,–
"CCC(C)=NOC(=O)Nc1cccc(CO/N=C(/c2ccccc2)c2nnnn2C)n1 [Example 1, [(butan-2-ylideneamino)oxy]({6-[({[(Z)-(1-methyl-1H-tetrazol-5-yl)(phenyl)methylene]amino}oxy)methyl]pyridin-2-yl}amino)methanone]",95,–,3.27
CCC(=NOC(=O)Nc1cccc(CON=C(c2ccccc2)c2nnnn2C)n1)c1ccccc1 [Example 4],97,–,–
CCCCC(C)=NOC(=O)Nc1cccc(CON=C(c2ccccc2)c2nnnn2C)n1 [Example 2],92,3.96,–
CC(=NOC(=O)Nc1cccc(CON=C(c2ccccc2)c2nnnn2C)n1)c1ccccc1 [Example 3],94,–,–
Cn1nnnc1C(=NOCc1cccc(NC(=O)ON=C(CCl)C(C)(C)C)n1)c1ccccc1 [Example 8],93,–,–
CC(C)=NOC(=O)Nc1cccc(CON=C(c2ccccc2)c2nnnn2C)n1 [Example 14],92,–,–
